Results published in PMC11207111, “Assessment of the Activity of Nitroisoxazole Derivatives against Trypanosoma cruzi” (Molecules, 2024).

What was measured:
[1] = ORAC-FL antioxidant capacity; conditions: relative to Trolox; phosphate buffer 75 mM, pH 7.4, 37 °C
Experimental: To corroborate the generation of the nitro radical, the antioxidant capacity of the series under study was determined by ORAC-FL methodology, employing a fluorescent probe to capture oxygen-centered radicals (Table 2). The ORAC-FL values of the studied compounds are close to the reference value of Trolox, indicating a low antioxidant capacity. For compounds (1-3), the presence of amino substituents decreases antioxidant activity due to their […] characteristics, preventing the presence of labile hydrogens. […] Compounds 4 and 10 present similar ORAC indexes as aromatic rings with high electron density insert the transfer of labile protons. Antioxidant capacity was determined using the ORAC-fluorescence methodology (ORAC-FL). The analysis used a 96-well white polystyrene plate reader (EnSpire multimode PerkinElmer, Waltham, MA, USA). The reaction was carried out in phosphate buffer (75 mM, pH 7.4). […] A blank with FL and AAPH, using dimethyl sulfoxide instead of the antioxidant solution, was used in each assay. […] The inhibitor capacity was expressed as ORAC-FL values and quantified by integrating the area under the curve (AUCNET). All reaction mixtures were prepared in triplicate, and at least three independent assays were performed for each sample. The area under the fluorescence decay curve (AUC) was calculated by integrating the fluorescence decay where F0 is the initial fluorescence read at 0 min, and F is the fluorescence read at the time. The AUCNET corresponding to the sample was calculated by subtracting the AUC corresponding to the blank. Data were processed using Origin […].5 SR2 (San Francisco, CA, USA). The ORAC-FL indices were calculated according to the following Equation (1): (1) ORAC-[…]]

[2] = Cyclic voltammetry (reduction of the nitro group); type: physicochemical; parameters: key to −EpcI / −EpcII / −EpaII / −EpaI: potentials in V vs Ag/AgCl; |ΔEp|: unit not given here
From the text: The chemistry mechanism of reduction in nitroisoxazole derivatives was investigated using cyclic voltammetry.
The peak near −1.32 V corresponds to a quasi-reversible one-electron transfer, according to the criteria of Nicholson–Shain [26] (Table 1), attributable to the species −NO2/NO2.− . The latter species stable anion radical at room temperature. […] An irreversible peak at −0.93 V to the mono-electronic transfer −HNO2/HNO2.− is observed, coupled with a chemical reaction associated with […] of the formed radical. This was evidenced by the addition of NaOH (1 M), which caused a decrease in the Ic peak (Figure 2c).
As previously described, an irreversible signal assigned to hydroxylamine oxidation to a nitroso derivative is also observed for N-acylhydrazones organometallic compounds with a pendant 5-nitrofuryl group. […] Compound 7, which has the least negative reduction potential, can be attributed to introducing a nitro group in the para position of the nitroisoxazole ring. This effect can also be observed in derivatives containing halogens in the same position.
Electrochemical characterization of the new compounds was performed through cyclic voltammetry (CV) on a 693 VA Metrohm instrument (Tokyo, Japan) equipped with a 694 VA Stand converter and 693 VA processor. Potentials were recorded against the Ag/AgCl reference electrode; a hanging drop of mercury (HDME) was used as a working electrode, and platinum was used as an auxiliary electrode. Tetrabutylammonium perchlorate (TBAP, 0.1 M) in DMSO was used as a supporting electrolyte under an N2 atmosphere at room temperature. Using Nicholson´s procedure, the Ipa/Ipc values (RNO2/RNO2^−) were measured from each cyclic voltammogram with a scan rate between 0.1 and 2.5 V/s.

[3] = test system: epimastigote of T. cruzi Dm28; test: Trypanocidal activity (MTT) on epimastigotes; type: cell-based; conditions: Trypanosoma cruzi; for killing at 100 µM: 24 h, n.a = not active, read-out: % T. cruzi Epimastigote (trypanocidal effect)
Experimental: As a preliminary step, a study of nitroisoxazole derivatives on the epimastigote form of T. cruzi was performed. Despite the epimastigote form not being a clinical form present in mammals, its easy handling has allowed screening for the trypanocidal activity of various compounds. It is worth noting that, during the intracellular life cycle of the parasite, a form similar to the epimastigote, which is biochemically and morphologically identical to the form present in the vector, has been described. […] RPMI 1640 medium) for 24 h. […] The effects of the compounds on trypomastigote and Vero cell viability were evaluated by tetrazolium salt reduction assay (MTT). […] The plates were kept overnight at 37 °C (28 °C for epimastigotes), and the optical density (OD) was determined using a 96-well microplate reader (Vantaa, Finland) at 570 nm. Under these conditions, the OD is directly proportional to each well’s viable number of cells. The experiments were performed in triplicate across three different assays.

T. cruzi trypomastigotes = test: Generation of ROS (DCFH2-DA fluorescent probe); type: cell-based, Trypanosoma cruzi; conditions: 100 µM, 40 min, vs control without compound
Experimental: To generate radical species on T. cruzi trypomastigotes, intracellular free radicals were determined using the fluorescent probe dichlorofluorescein (DCF).
The cultures were incubated with a 20 µM DCFH2-DA solution for 15 min at 28 °C. Then, they were centrifuged at 3500 rpm and washed 2 times with phosphate buffer saline (PBS) pH 7.4. Cells loaded with DCFH2-DA were transferred to a Nunc® fluorescence 96-well plate (Thermo Fisher Scientific Inc., Waltham, MA, USA), where the nitroisoxazoles derivates were added at 100 µM. Fluorescence (exi: 488 nm, emi: 528 nm) was recorded for 40 min in a BioTek (Winooski, VT, USA) Synergy HT spectrofluorometer. The area under increase curves over time was determined using Oring 8 software, with areas normalized to control. Results are the means ± SD of three independent experiments.

[4] = test system: trypomastigote of T. cruzi Dm28; test: Trypanocidal activity (MTT) on trypomastigotes; type: cell-based; conditions: Trypanosoma cruzi; for killing at 100 µM: 24 h, n.a = not active, read-out: % T. cruzi Trypomastigote (trypanocidal effect); for IC50: T. cruzi Dm28, 24 h
Experimental: As a preliminary step, a study of nitroisoxazole derivatives on the epimastigote form of T. cruzi was performed. Despite the epimastigote form not being a clinical form present in mammals, its easy handling has allowed screening for the trypanocidal activity of various compounds. It is worth noting that, during the intracellular life cycle of the parasite, a form similar to the epimastigote, which is biochemically and morphologically identical to the form present in the vector, has been described. […] This is consistent with studies by Fonseca-Berzal et al. […] Additionally, compounds with higher activity have aromatic rings as substituents for nitroisoxazoles, confirming what was described Do […] [40]. […] It has also been determined that the presence of an isoxazole is essential for activity, as its aromatic structure contains a weak nitrogen-oxygen bond that, under different reaction conditions, can undergo ring cleavage, increasing activity. The results obtained on epimastigotes cannot be conclusive for determining potential Chagas agents, so conducting studies on the infective, extracellular, non-replicative trypomastigote form of T. cruzi present in humans is essential. […] RPMI 1640 medium) for 24 h. […] The effects of the compounds on trypomastigote and Vero cell viability were evaluated by tetrazolium salt reduction assay (MTT). […] The plates were kept overnight at 37 °C (28 °C for epimastigotes), and the optical density (OD) was determined using a 96-well microplate reader (Vantaa, Finland) at 570 nm. Under these conditions, the OD is directly proportional to each well's viable number of cells. The experiments were performed in triplicate across three different assays.

Vero mammalian cells = test: Cytotoxicity (MTT) on Vero cells; type: cell-based; conditions: Chlorocebus sabaeus, 24 h
Experimental: Additionally, the cytotoxicity of the compounds on VERO mammalian cells was assessed (Table 4). […] It is observed that the majority of the derivatives present considerable cytotoxicity. […] RPMI 1640 medium) for 24 h. […] The effects of the compounds on trypomastigote and Vero cell viability were evaluated by tetrazolium salt reduction assay (MTT). […] The plates were kept overnight at 37 °C (28 °C for epimastigotes), and the optical density (OD) was determined using a 96-well microplate reader (Vantaa, Finland) at 570 nm. Under these conditions, the OD is directly proportional to each well’s viable number of cells. The experiments were performed in triplicate across three different assays.

[5] = cyclic voltammetry at 2.0 V/s, DMSO, 0.1 M TBAP, vs Ag/AgCl

SMILES	ORAC-FL Index [1]	Ipa/Ipc ([2]; cyclic voltammetry at 2.0 V/s)	|ΔEp| ([2]; cyclic voltammetry at 2.0 V/s)	−EpaII [2, 5]	−EpcII [2, 5]	melting point [°C]	killing at 100 µM [3] [%]	peak potential, quasi-reversible one-electron transfer −NO2/NO2.− ([2]; cyclic voltammogram, Figure 2a) [V]	ROS generation (DCF fluorescence intensity) (T. cruzi trypomastigotes)	killing at 100 µM [4] [%]	IC50 [4] [µM]	IC50 (Vero mammalian cells) [µM]	IC50 ([3]; T. cruzi Dm28, 24 h, read-out: IC50 T. cruzi E (epimastigote)) [µM]	−EpcI [2, 5]	−EpaI [2, 5]
Cc1noc(/C=C/N(C)C)c1[N+](=O)[O-] [Compound 1, (E)-N,N-Dimethyl-2-(3-methyl-4-nitroisoxazol-5-yl)ethen-1-amine]	0.9 ± 0.2	−0.44	140	1.19	1.33	154 to 156	18 ± 1								
Cc1noc(/C=C/N2CCCC2)c1[N+](=O)[O-] [Compound 2, (E)-3-Methyl-4-nitro-5-(2-(pyrrolidin-1-yl)vinyl)isoxazole]	0.14 ± 0.05	0.32	120	1.20	1.32	145 to 147	19 ± 3	~−1.32							
Cc1noc(/C=C/N2CCCCC2)c1[N+](=O)[O-] [Compound 3, (E)-3-Methyl-4-nitro-5-(2-(piperidin-1-yl)vinyl)isoxazole]	0.52 ± 0.05	−0.19	100	1.19	1.29	151 to 153	17 ± 5		increase in fluorescence intensity	20 ± 2	> 400	> 400	> 400		
Cc1noc(/C=C/c2ccccc2)c1[N+](=O)[O-] [Compound 4, (E)-3-Methyl-4-nitro-5-styrylisoxazole]	0.33 ± 0.06	−0.09	90	0.80	0.89	176 to 178	47 ± 4			0					
Cc1noc(/C=C/c2ccc(C(F)(F)F)cc2)c1[N+](=O)[O-] [Compound 6, (E)-3-Methyl-4-nitro-5-(4-(trifluoromethyl)styryl)isoxazole]	0.8 ± 0.1				0.74	187 to 189	28 ± 2								
Cc1noc(/C=C/c2ccc([N+](=O)[O-])cc2)c1[N+](=O)[O-] [Compound 7, (E)-3-Methyl-4-nitro-5-(4-nitrostyryl)isoxazole]	0.57 ± 0.08	−0.44	70	0.64	0.71	225 to 227	36 ± 2								
Cc1noc(/C=C/c2ccco2)c1[N+](=O)[O-] [Compound 10, (E)-5-(2-(Furan-2-yl)vinyl)-3-methyl-4-nitroisoxazole]	0.36 ± 0.07	−0.16	100	0.74	0.84	145 to 147	42 ± 2								
Cc1ccc(-n2cc(/C=C/c3onc(C)c3[N+](=O)[O-])c3ccccc32)cc1 [Compound 14, (E)-3-Methyl-4-nitro-5-(2-(1-(p-tolyl)-1H-indol-3-yl)vinyl)isoxazole]	0.4 ± 0.1	−0.32	120	0.84	0.96	208 to 211	27 ± 2			3 ± 1				0.72	
Cc1noc(/C=C/c2ccccc2Br)c1[N+](=O)[O-] [Compound 15, (E)-5-(2-Bromostyryl)-3-methyl-4-nitroisoxazole]	0.8 ± 0.3	−0.14	100	0.95	1.10	169 to 172	29 ± 2							0.80	0.70
Cc1noc(C)c1[N+](=O)[O-] [Compound P1, 3,5-dimethyl-4-nitroisoxazole]							14 ± 3								
O=CCc1ccc(Br)cc1 [Compound P2, 4-bromophenyl acetaldehyde]							5 ± 2								
CC1CS(=O)(=O)CCN1/N=C/c1ccc([N+](=O)[O-])o1 (stereo not drawn) [Nfx, nifurtimox, reference compound]							98.9 ± 0.3			74 ± 1	10.04 ± 0.1	172.9 ± 0.1			
Cc1c(C)c2c(c(C)c1O)CCC(C)(C(=O)O)O2 (stereo not drawn) [Trolox, reference compound]	1.00 ± 0.01														
